From patent US8058243B2, “Method for treating a brain cancer with ifenprodil” (HSC Research and Development Limited Partnership, priority 2006, dated 2011)
Like-named read-outs stand apart in the source and are kept apart here.

System: murine neural precursor cells (neurosphere cultures)
Assay: HTS of LOPAC library against secondary neurosphere cultures, MTT proliferation assay at 3 μM, day 7 (z score, P value)
Type: cell-based, mouse
[1] = LOPAC primary screen, neurosphere MTT proliferation, 3 μM, day 7
[2] = yes/no: significantly inhibited neurosphere proliferation (P<0.01) in primary screen
[3] = yes = significantly inhibited neurosphere proliferation (P<0.01) in the primary screen
[4] = LOPAC library screen, 3 μM, MTT, neurosphere cultures
[5] = primary LOPAC screen, 3 μM, MTT, neurosphere proliferation
[6] = yes/no: significantly inhibited neurosphere proliferation in the primary screen
[7] = LOPAC screen, neurosphere MTT proliferation, 3 μM, day 7
[8] = LOPAC library screen at 3 μM, secondary neurosphere cultures, MTT
[9] = yes/no: significantly inhibited neurosphere proliferation in primary screen
[10] = LOPAC library screen, 3 μM, MTT, secondary neurosphere cultures, day 7

Compound | Z Score | Z score [1] | Activity [2] | further results
Cl.Clc1cc(I)cc(Cl)c1NC1=NCCN1 [p-Iodoclonidine hydrochloride] | −0.1606 | −0.161 | no | –
COc1ccccc1N1CCN(CCN(C(=O)c2ccc(F)cc2)c2ccccn2)CC1.Cl.Cl [p-MPPF dihydrochloride] | −2.16 | – | – | –
COc1ccccc1N1CCN(CCN(C(=O)c2ccc(F)cc2)c2ccccn2)CC1.Cl.Cl [p-MPPF dihyrochloride] | – | −2.160 | – | Activity [3]: no
COc1ccccc1N1CCN(CCN(C(=O)c2ccc(I)cc2)c2ccccn2)CC1.Cl [p-MPPI hydrochloride] | 0.2606 | 0.261 | – | Activity [3]: no
NC1(C(=O)O)CCC(C(=O)O)C1 (stereo not drawn) [trans-(B1)-ACPD] | 0.3149 | – | – | –
(+)-Catechin Hydrate | – | – | – | Z Score [4]: 0.5105; Z score [5]: 0.511; Activity [6]: no
(+)-Cyclazocine | 0.6116 | – | no | Z score [7]: 0.612
(+)-Nicotine (+)-di-p-toluoyl tartrate | −2.233 | – | – | Activity: no; Z score: −2.233
(S)-(−)-propafenone hydrochloride | – | −0.752 | – | Z Score [8]: −0.7524; Activity [9]: no
(S)-Propranolol hydrochloride | – | −0.535 | – | Z Score [8]: −0.5346; Activity [9]: no
(±)-Atenolol | – | – | – | Z score [5]: −0.658; Activity [6]: no
(±)-Pindobind | – | 0.257 | – | Activity [9]: no
(−)-Bicuculline methbromide, 1(S), 9(R) | −1.842 | −1.842 | – | Activity: no
(−)-Cotinine | – | – | no | Z Score [8]: −0.5099; Z score [7]: −0.510
(−)-Eseroline fumarate | 0.6339 | 0.634 | no | –
(−)-MK-801 hydrogen maleate | 1.133 | 1.133 | – | Activity [3]: no

Compound | Z Score | Z score [1] | Activity [2] | further results
(−)-Naproxen sodium | – | 0.602 | – | Z Score [4]: 0.6024; Activity [3]: no
(−)-Perillic acid | −1.321 | – | – | –
(−)-Quinpirole hydrochloride | −1.565 | – | – | Z score: −1.565
(−)-Scopolamine methyl nitrate | – | – | – | Activity [9]: no
(−)-Tetramisole hydrochloride | – | – | – | Z Score [10]: −1.866
(−)Amethopterin | – | −8.704 | – | Z Score [10]: −8.704; Activity (yes/no: significantly inhibited neurosphere proliferation (P<0.01) in the primary screen): yes
Albuterol hemisulfate | – | −0.949 | – | Z Score [8]: −0.949; Activity [9]: no
CGP 20712A methanesulfonate | – | – | no | Z Score [4]: 0.6491; Z score [7]: 0.649
Ceramide | −0.8267 | – | – | Z score [5]: −0.827; Activity [6]: no
Dextrorphan D-tartrate | 1.569 | – | – | Activity: no; Z score: 1.569
Dihydroergocristine methanesulfonate | −0.773 | – | no | Z score [7]: −0.773
Foliosidine | −0.0969 | −0.097 | no | –
Histamine, R(−)-alpha-methyl-, dihydrochloride | – | −1.469 | no | Z Score [10]: −1.469
Hydroxytacrine maleate | −0.2043 | −0.204 | no | –
Iproniazid phosphate | – | −0.249 | no | Z Score [8]: −0.2492
JL-18 | −0.2861 | −0.286 | no | –
